Assay results reported in patent US20240182531A1, “KV1.3 Blockers” (priority 2021, published 2024).
Where a SMILES comes first, the peptide text is derived from it. Bridges are numbered along the chain shown (N, C = ends). [ ]: non-standard residue; d: D form. Nle = CCCC[C@H](N)C(=O)O

Assays:
Test in all cases: cell-based
Details in all cases: ratio of patch clamp IC50 values
human Kv1.1 = biological target: T1, human Kv1.1 (Homo sapiens, UniProt Q09470)
T1 construct: expressed in transfected cells; host or cells: CHO
T1 sequence (Q09470 whole entry): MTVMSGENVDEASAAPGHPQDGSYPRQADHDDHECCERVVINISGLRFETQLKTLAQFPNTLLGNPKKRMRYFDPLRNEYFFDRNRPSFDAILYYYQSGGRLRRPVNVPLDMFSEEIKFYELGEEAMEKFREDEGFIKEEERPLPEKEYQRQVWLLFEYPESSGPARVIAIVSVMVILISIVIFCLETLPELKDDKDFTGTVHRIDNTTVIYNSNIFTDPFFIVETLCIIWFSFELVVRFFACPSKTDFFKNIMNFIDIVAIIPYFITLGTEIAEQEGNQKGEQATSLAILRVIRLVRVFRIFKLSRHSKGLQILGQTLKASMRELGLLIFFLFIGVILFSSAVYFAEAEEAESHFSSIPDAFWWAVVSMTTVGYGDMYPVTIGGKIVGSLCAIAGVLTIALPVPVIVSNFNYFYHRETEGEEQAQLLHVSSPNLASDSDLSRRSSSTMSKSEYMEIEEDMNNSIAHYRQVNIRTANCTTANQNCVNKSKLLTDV

human Kv1.2 = biological target: T2, human Kv1.2 (Homo sapiens, UniProt P16389)
T2 construct: expressed in transfected cells; host or cells: CHO
T2 sequence (P16389 whole entry): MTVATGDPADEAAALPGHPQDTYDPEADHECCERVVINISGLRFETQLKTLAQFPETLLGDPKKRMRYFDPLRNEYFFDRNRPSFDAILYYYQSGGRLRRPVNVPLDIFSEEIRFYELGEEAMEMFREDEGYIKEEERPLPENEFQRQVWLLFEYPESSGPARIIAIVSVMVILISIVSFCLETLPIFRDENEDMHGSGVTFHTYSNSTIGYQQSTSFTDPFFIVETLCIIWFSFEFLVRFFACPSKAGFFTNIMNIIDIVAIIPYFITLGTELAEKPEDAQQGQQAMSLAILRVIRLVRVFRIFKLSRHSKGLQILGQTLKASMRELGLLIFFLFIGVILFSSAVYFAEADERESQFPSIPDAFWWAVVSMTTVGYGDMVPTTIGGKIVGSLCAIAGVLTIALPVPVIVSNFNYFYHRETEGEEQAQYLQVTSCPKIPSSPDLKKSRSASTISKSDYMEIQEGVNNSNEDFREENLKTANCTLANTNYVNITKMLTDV

human Kv1.6 = biological target: T3, human Kv1.6 (Homo sapiens, UniProt P17658)
T3 construct: expressed in transfected cells; host or cells: CHO
T3 sequence (P17658 whole entry): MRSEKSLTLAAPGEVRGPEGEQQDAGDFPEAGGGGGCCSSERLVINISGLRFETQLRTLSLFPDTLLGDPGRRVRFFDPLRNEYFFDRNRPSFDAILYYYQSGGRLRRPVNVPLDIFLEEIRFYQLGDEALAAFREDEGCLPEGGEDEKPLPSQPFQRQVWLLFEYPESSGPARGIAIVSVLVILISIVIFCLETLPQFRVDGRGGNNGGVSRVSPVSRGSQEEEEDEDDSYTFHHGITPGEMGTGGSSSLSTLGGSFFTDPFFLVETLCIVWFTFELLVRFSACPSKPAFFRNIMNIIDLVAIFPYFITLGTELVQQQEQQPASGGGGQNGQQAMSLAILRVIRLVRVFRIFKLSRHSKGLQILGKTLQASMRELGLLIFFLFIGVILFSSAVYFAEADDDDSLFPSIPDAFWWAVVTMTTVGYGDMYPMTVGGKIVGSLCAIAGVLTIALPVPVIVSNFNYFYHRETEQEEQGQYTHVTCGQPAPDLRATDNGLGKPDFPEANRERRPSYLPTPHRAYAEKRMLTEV

SMILES	Selectivity ratio Kv1.1/Kv1.3 (human Kv1.1)	Selectivity ratio Kv1.2/Kv1.3 (human Kv1.2)	Selectivity ratio Kv1.6/Kv1.3 (human Kv1.6)
CC[C@H](C)[C@@H]1NC(=O)[C@H](CO)NC(=O)CNC(=O)[C@H](Cc2ccc(O)cc2)NC(=O)[C@H](C)NC(=O)[C@H](CCCCN)NC(=O)[C@H](CC(C)C)NC(=O)[C@@H]2CSSC[C@@H](C(=O)N[C@@H](Cc3ccc(O)cc3)C(=O)N3CCC[C@H]3C(=O)N[C@@H](CCCNC(=N)N)C(N)=O)NC(=O)[C@H](CCCCN)NC(=O)[C@@H]3CSSC[C@H](NC(=O)[C@H](CCC(=O)O)NC(=O)[C@H](C(C)C)NC(=O)[C@H](CO)NC(=O)[C@H](C)NC(=O)[C@H](CO)NC(=O)[C@@H](NC(=O)[C@H](CCCNC(=N)N)NC(=O)[C@H](CCSC)NC(=O)[C@H](CC(=O)O)NC(=O)[C@H](CCSC)NC(=O)[C@@H](N)CC(N)=O)CSSC[C@H](NC(=O)[C@H](CCCCN)NC(=O)CNC(=O)[C@H](Cc4ccccc4)NC1=O)C(=O)N[C@@H](CCSC)C(=O)N[C@@H](CC(N)=O)C(=O)N[C@@H](CCCCN)C(=O)N[C@@H](CCCCN)C(=O)N3)C(=O)N[C@@H](CCCCN)C(=O)N[C@@H](CCC(N)=O)C(=O)N[C@@H](CCCCN)C(=O)N2 [compound 61] (H-NMDMRCSASVECKQKCLKAYGSIFGKCMNKKCKCYPR-NH2; disulfide 6-27, 12-32, 16-34)	>8800	426	>8800
CC[C@H](C)[C@@H]1NC(=O)[C@H](C)NC(=O)[C@H](CCCCN)NC(=O)[C@H](CC(C)C)NC(=O)[C@@H]2CSSC[C@@H](C(=O)N[C@@H](Cc3ccc(O)cc3)C(=O)N3CCC[C@H]3C(=O)N[C@@H](CCCNC(=N)N)C(=O)O)NC(=O)[C@H](CCCCN)NC(=O)[C@@H]3CSSC[C@H](NC(=O)[C@H](CCC(=O)O)NC(=O)[C@H](C(C)C)NC(=O)[C@H](CO)NC(=O)[C@H](C)NC(=O)[C@H](CO)NC(=O)[C@@H](NC(=O)[C@H](CCCNC(=N)N)NC(=O)[C@H](CCSC)NC(=O)[C@H](CC(=O)O)NC(=O)[C@@H](NC(=O)[C@@H](N)CC(N)=O)[C@@H](C)CC)CSSC[C@H](NC(=O)[C@H](CCCCN)NC(=O)CNC(=O)[C@H](Cc4ccccc4)NC(=O)[C@H]([C@@H](C)CC)NC(=O)[C@H](CO)NC(=O)CNC1=O)C(=O)N[C@@H](CCSC)C(=O)N[C@@H](CC(N)=O)C(=O)N[C@@H](CCCCN)C(=O)N[C@@H](CCCCN)C(=O)N3)C(=O)N[C@@H](CCCCN)C(=O)N[C@@H](CCC(N)=O)C(=O)N[C@@H](CCCCN)C(=O)N2 [compound 19] (H-NIDMRCSASVECKQKCLKAIGSIFGKCMNKKCKCYPR-OH; disulfide 6-27, 12-32, 16-34)	>6800	857	>6800
CCCC[C@H](NC(=O)[C@H](CC(=O)O)NC(=O)[C@H](CCCC)NC(=O)[C@@H](N)CO)C(=O)N[C@@H](CCCNC(=N)N)C(=O)N[C@H]1CSSC[C@@H]2NC(=O)[C@H](CCCCN)NC(=O)CNC(=O)[C@H](Cc3ccccc3)NC(=O)[C@H]([C@@H](C)CC)NC(=O)[C@H](CO)NC(=O)CNC(=O)[C@H]([C@@H](C)CC)NC(=O)[C@H](C)NC(=O)[C@H](CCCCN)NC(=O)[C@H](CC(C)C)NC(=O)[C@@H]3CSSC[C@@H](C(=O)N[C@@H](Cc4ccc(O)cc4)C(=O)N4CCC[C@H]4C(=O)N[C@@H](CCCNC(=N)N)C(N)=O)NC(=O)[C@H](CCCCN)NC(=O)[C@H](CSSC[C@H](NC(=O)[C@H](CCC(=O)O)NC(=O)[C@H](C(C)C)NC(=O)[C@H](CO)NC(=O)[C@H](C)NC(=O)[C@H](CO)NC1=O)C(=O)N[C@@H](C)C(=O)N[C@@H](CCC(N)=O)C(=O)N[C@@H](CO)C(=O)N3)NC(=O)[C@H](CCCCN)NC(=O)[C@H](CCCCN)NC(=O)[C@H](CC(N)=O)NC(=O)[C@H](CCSC)NC2=O [compound 78] (H-S[Nle]D[Nle]RCSASVECAQSCLKAIGSIFGKCMNKKCKCYPR-NH2; disulfide 6-27, 12-32, 16-34)	>14600	5596	>14600
CC[C@H](C)[C@@H]1NC(=O)[C@H](C)NC(=O)[C@H](CCCCN)NC(=O)[C@H](CC(C)C)NC(=O)[C@@H]2CSSC[C@@H](C(=O)N[C@@H](Cc3ccc(O)cc3)C(=O)N3CCC[C@H]3C(=O)N[C@@H](CCCNC(=N)N)C(=O)O)NC(=O)[C@H](CCCCN)NC(=O)[C@@H]3CSSC[C@H](NC(=O)[C@H](CCC(=O)O)NC(=O)[C@H](C(C)C)NC(=O)[C@H](CO)NC(=O)[C@H](C)NC(=O)[C@H](CO)NC(=O)[C@@H](NC(=O)[C@H](CCCNC(=N)N)NC(=O)[C@H](CCSC)NC(=O)[C@H](CC(=O)O)NC(=O)[C@H](CCSC)NC(=O)[C@@H](N)CCC(N)=O)CSSC[C@H](NC(=O)[C@H](CCCCN)NC(=O)CNC(=O)[C@H](Cc4ccccc4)NC(=O)CNC(=O)[C@H](CCCNC(=N)N)NC(=O)CNC1=O)C(=O)N[C@@H](CCSC)C(=O)N[C@@H](CC(N)=O)C(=O)N[C@@H](CCCCN)C(=O)N[C@@H](CCCCN)C(=O)N3)C(=O)N[C@@H](CCCCN)C(=O)N[C@@H](CCC(N)=O)C(=O)N[C@@H](CCCCN)C(=O)N2 [compound 16] (H-QMDMRCSASVECKQKCLKAIGRGFGKCMNKKCKCYPR-OH; disulfide 6-27, 12-32, 16-34)	>2000	65	1204
CC[C@H](C)[C@@H]1NC(=O)[C@H](C)NC(=O)[C@H](CCCCN)NC(=O)[C@H](CC(C)C)NC(=O)[C@@H]2CSSC[C@@H](C(=O)N[C@@H](Cc3ccc(O)cc3)C(=O)N3CCC[C@H]3C(=O)N[C@@H](CCCNC(=N)N)C(=O)O)NC(=O)[C@H](CCCCN)NC(=O)[C@@H]3CSSC[C@H](NC(=O)[C@H](CCC(=O)O)NC(=O)[C@H](C(C)C)NC(=O)[C@H](CO)NC(=O)[C@H](C)NC(=O)[C@H](CO)NC(=O)[C@@H](NC(=O)[C@H](CCCNC(=N)N)NC(=O)[C@H](CCSC)NC(=O)[C@H](CCC(=O)O)NC(=O)[C@H](CCSC)NC(=O)[C@@H](N)CC(N)=O)CSSC[C@H](NC(=O)[C@H](CCCCN)NC(=O)CNC(=O)[C@H](Cc4ccccc4)NC(=O)[C@H]([C@@H](C)CC)NC(=O)[C@H](CO)NC(=O)CNC1=O)C(=O)N[C@@H](CCSC)C(=O)N[C@@H](CC(N)=O)C(=O)N[C@@H](CCCCN)C(=O)N[C@@H](CCCCN)C(=O)N3)C(=O)N[C@@H](CCCCN)C(=O)N[C@@H](CCC(N)=O)C(=O)N[C@@H](CCCCN)C(=O)N2 [compound 20] (H-NMEMRCSASVECKQKCLKAIGSIFGKCMNKKCKCYPR-OH; disulfide 6-27, 12-32, 16-34)	>27600	2093	>27600
CC[C@H](C)[C@@H]1NC(=O)[C@H](C)NC(=O)[C@H](Cc2ccc(O)cc2)NC(=O)[C@H](CC(C)C)NC(=O)[C@@H]2CSSC[C@@H](C(=O)N[C@@H](Cc3ccc(O)cc3)C(=O)N3CCC[C@H]3C(=O)N[C@@H](CCCNC(=N)N)C(N)=O)NC(=O)[C@H](CCCCN)NC(=O)[C@@H]3CSSC[C@H](NC(=O)[C@H](CCC(=O)O)NC(=O)[C@H](C(C)C)NC(=O)[C@H](CO)NC(=O)[C@H](C)NC(=O)[C@H](CO)NC(=O)[C@@H](NC(=O)[C@H](CCCNC(=N)N)NC(=O)[C@H](CCSC)NC(=O)[C@H](CC(=O)O)NC(=O)[C@H](CCSC)NC(=O)[C@@H](N)CC(N)=O)CSSC[C@H](NC(=O)[C@H](CCCCN)NC(=O)CNC(=O)[C@H](Cc4ccccc4)NC(=O)[C@H]([C@@H](C)CC)NC(=O)[C@H](CO)NC(=O)CNC1=O)C(=O)N[C@@H](CCSC)C(=O)N[C@@H](CC(N)=O)C(=O)N[C@@H](CCCCN)C(=O)N[C@@H](CCCCN)C(=O)N3)C(=O)N[C@@H](CCCCN)C(=O)N[C@@H](CCC(N)=O)C(=O)N[C@@H](CCCCN)C(=O)N2 [compound 57] (H-NMDMRCSASVECKQKCLYAIGSIFGKCMNKKCKCYPR-NH2; disulfide 6-27, 12-32, 16-34)	>10300	514	>10300
CC[C@H](C)[C@@H]1NC(=O)[C@H](C)NC(=O)[C@H](CC(C)C)NC(=O)[C@@H]2CSSC[C@@H](C(=O)N[C@@H](Cc3ccc(O)cc3)C(=O)N3CCC[C@H]3C(=O)N[C@@H](CCCNC(=N)N)C(N)=O)NC(=O)[C@H](CCCCN)NC(=O)[C@@H]3CSSC[C@H](NC(=O)[C@H](CCC(=O)O)NC(=O)[C@H](C(C)C)NC(=O)[C@H](CO)NC(=O)[C@H](C)NC(=O)[C@H](CO)NC(=O)[C@@H](NC(=O)[C@H](CCCNC(=N)N)NC(=O)[C@H](CCSC)NC(=O)[C@H](CC(=O)O)NC(=O)[C@H](CCSC)NC(=O)[C@@H](N)CC(N)=O)CSSC[C@H](NC(=O)[C@H](CCCCN)NC(=O)CNC(=O)[C@H](Cc4ccccc4)NC(=O)[C@H]([C@@H](C)CC)NC(=O)[C@H](CO)NC(=O)CNC1=O)C(=O)N[C@@H](CCSC)C(=O)N[C@@H](CC(N)=O)C(=O)N[C@@H](CCCCN)C(=O)N[C@@H](CCCCN)C(=O)N3)C(=O)N[C@@H](CCCCN)C(=O)N[C@@H](CCC(N)=O)C(=O)N[C@@H](CCCCN)C(=O)N2 [compound 58] (H-NMDMRCSASVECKQKCLAIGSIFGKCMNKKCKCYPR-NH2; disulfide 6-26, 12-31, 16-33)	>1200	121	>1200
CC[C@H](C)[C@@H]1NC(=O)[C@H](C)NC(=O)[C@H](CCCCN)NC(=O)[C@H](CC(C)C)NC(=O)[C@@H]2CSSC[C@@H](C(=O)N[C@@H](Cc3ccc(O)cc3)C(=O)N3CCC[C@H]3C(=O)N[C@@H](CCCNC(=N)N)C(=O)O)NC(=O)[C@H](CCCCN)NC(=O)[C@@H]3CSSC[C@H](NC(=O)[C@H](CCC(=O)O)NC(=O)[C@H](C(C)C)NC(=O)[C@H](CO)NC(=O)[C@H](C)NC(=O)[C@H](CO)NC(=O)[C@@H](NC(=O)[C@H](CCCNC(=N)N)NC(=O)[C@H](CCSC)NC(=O)[C@H](CC(=O)O)NC(=O)[C@@H](N)CCSC)CSSC[C@H](NC(=O)[C@H](CCCCN)NC(=O)CNC(=O)[C@H](Cc4ccccc4)NC(=O)[C@H]([C@@H](C)CC)NC(=O)[C@H](CO)NC(=O)CNC1=O)C(=O)N[C@@H](CCSC)C(=O)N[C@@H](CC(N)=O)C(=O)N[C@@H](CCCCN)C(=O)N[C@@H](CCCCN)C(=O)N3)C(=O)N[C@@H](CCCCN)C(=O)N[C@@H](CCC(N)=O)C(=O)N[C@@H](CCCCN)C(=O)N2 [compound 18] (H-MDMRCSASVECKQKCLKAIGSIFGKCMNKKCKCYPR-OH; disulfide 5-26, 11-31, 15-33)	>7900	747	>7900
